Structures are written as SMILES.

The test system of series [1] is non-small cell lung carcinoma (NSCLC). As to the kind of experiment: Clinical imaging of advanced NSCLC patients with 131I-CLR1404. To be noted: two patients, injection of <1 mCi 131I-CLR1404, gamma imaging. The class given is in vivo, human. How it is done:
To date, two patients with advanced NSCLC were imaged after an injection of <1 mCi of ^131I-CLR1404. Blood and urine samples were collected at predetermined times, and gamma imaging performed at several time points following administration.
Materials and Methods: Following intravenous injection of iodine-131 labeled CLR1404 (1 mCi/20 μg), patients with advanced NSCLC where scanned at 3, 6, 24, 48, 96 h and at 7 and 11 days on a GE Maxxus dual Head SPECT scanner. Blood and urine samples were collected for pharmacokinetic analysis as well as clinical hematologic, renal, and hepatic bioanalysis.

Series [2] is described as follows: CLR1404 tumor selectivity across 60 tumor models. The class given is in vivo, rodent. To be noted: athymic nude (Hsd:Athymic Nude-Foxn1nu or Crl:NU-Foxn1nu), tumor, intravenous; xenograft, orthotopic, transgenic and spontaneous rodent models; read-out: tumor models showing selective uptake and prolonged retention. On the procedure: All described animal studies were performed according to animal protocols approved by the Institutional Animal Care and Use Committee. Female athymic nude mice (Hsd:Athymic Nude-Foxnlnu or Crl:NU-Foxnlnu, Charles River Laboratories) about 4 to 5 weeks of age, 16 to 18 g (n=6), were used for human tumor xenograft studies. Mice were anesthetized with isoflurane and injected subcutaneously with viable tumor cells in 100 μl of Dulbecco's PBS (or, for glioma cells, […] of PBS) into the right flank. Inoculum sizes were 1×10^6 (for renal, ovarian, glioma, pancreatic, prostate, and NSCLC models), […] (for colorectal and uterine models), or 3×10^6 (breast).
Radioiodinated ^124I-CLR1404 was tested in subcutaneous and orthotopic xenografts of 60 different spontaneous, transgenic, human, and rodent malignant cell lines and tumor types. […] Representative examples are of both human (FIG. 5A-5I) and rodent (FIG. 5J-M) tumors.

For series [3], the system named is human RL-251 tumor xenograft. As to the kind of experiment: Retention of 131I-CLR1404 by RL-251 tumor xenograft. The series is classed as in vivo, SCID mouse. To be noted: FIG. 3. The text has this: FIG. 3. Prolonged retention of ^131I-CLR1404 by human RL-251 tumor xenograft in SCID mouse.
CLR1404 is a PLE. Results obtained in a variety of tumor models indicate that CLR1404 is sequestered and selectively retained by cancer cells and cancer stem cells. […] CLR1404 localizes in both primary and metastatic lesions regardless of anatomic location including those found in lymph nodes. See Examples 3-8.

In series [4] the test system is MDA-MB-468 cells. As to the kind of experiment: Annexin V/PI flow cytometry, MDA-MB-468. The series is classed as cell-based. To be noted: table title 72 hours, text: paclitaxel for 24 hours. How it is done: Debris was eliminated from this analysis.
MDA-MB-468 cells, were also treated with CLR conjugates (CLR1606 and CLR1607) for 72 hours and with geldanamycin (“GEL”) for 48 hours.
CLR conjugates appear to require a longer treatment period with cells to induce cell death.
(In general: In flow cytometry, cells or beads pass a laser one at a time.)

For series [5], the system named is MDA-MB-468 cells. As to the kind of experiment: Annexin V/PI flow cytometry, MDA-MB-468. The series is classed as cell-based. To be noted: 48 hrs.
Series [6] concerns PC-3 (Prostate). Put plainly: Cell viability IC50, PC-3. The class given is cell-based. How it is done:
The cell lines were then measured for cell viability and reported as IC50 for each treatment.

As for `C[N+](C)(C)CCOP(=O)([O-])OCCCCCCCCCCCCCCCCCCc1ccc(I)cc1` [CLR1404, 18-(p-Iodophenyl)octadecyl phosphocholine], in series [1], the “tumor uptake and retention in the primary lung tumor” value is “significant tumor uptake and retention”. The number of tumor models with selective uptake in series [2] is over 55. Further, the “time remaining in cancer cells” value in series [3] was “up to 20 days”.
In general, IC50 refers to the concentration that inhibits the measured activity by half. Turning to `CC(=O)O[C@H]1C(=O)[C@@]2(C)[C@H]([C@H](OC(=O)c3ccccc3)[C@]3(O)C[C@H](OC(=O)[C@H](O)[C@@H](NC(=O)c4ccccc4)c4ccccc4)C(C)=C1C3(C)C)[C@]1(OC(C)=O)CO[C@@H]1C[C@@H]2O` [Paclitaxel, paclitaxel, reference compound], the Live in series [4] (MDA-MB-468, PTX 100 nM) is 53.8 % of total cells; in series [4] (MDA-MB-468, PTX 1 uM) it was 48.9 % of total cells; in series [5] (MDA-MB-468, 100 nM), 77.9 % of total cells; in series [5] (MDA-MB-468, 1 uM) it was 73.3 % of total cells. The compound further returned an IC50 in series [6] of 900 pM.

(Values after patent US9480754B2, “Phospholipid ether analogs as cancer-targeting drug vehicles” (Cellectar Biosciences, Inc., priority 2014, dated 2016).)
